In PubChem BioAssay (NCI):
Several values for one entry are separate records, joined by “and”; a condition that tells them apart may be missing. Identical values can stand only once.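 Cells were grown in 96-well plates and exposed to each compound for 48 hours at five concentrations; endpoints were interpolated linearly between bracketing concentrations, or set to the highest concentration if not reached. GI50: concentration for 50% inhibition of growth. TGI denotes the concentration required for complete inhibition of growth.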

What was measured:
Assay in all cases: NCI-60 cell line screen, 48 h
SK-MEL-2 melanoma = test system: SK-MEL-2 melanoma
SF-295 CNS = test system: SF-295 CNS
OVCAR-3 ovarian = test system: OVCAR-3 ovarian
HOP-62 NSCLC = test system: HOP-62 NSCLC
RXF 393 renal = test system: RXF 393 renal
A549 NSCLC = test system: A549 NSCLC
COLO 205 colon = test system: COLO 205 colon
SNB-19 CNS = test system: SNB-19 CNS
OVCAR-4 ovarian = test system: OVCAR-4 ovarian
NCI-H460 lung = test system: NCI-H460 lung

SMILES	TGI (SK-MEL-2 melanoma)	TGI (SF-295 CNS) [µM]	TGI (OVCAR-3 ovarian)	TGI (HOP-62 NSCLC) [µM]	TGI (RXF 393 renal) [µM]	TGI (A549 NSCLC) [µM]	TGI (COLO 205 colon) [µM]	TGI (SNB-19 CNS) [µM]	TGI (OVCAR-4 ovarian)	TGI (NCI-H460 lung) [µM]	GI50 (SK-MEL-2 melanoma) [µM]	GI50 (SF-295 CNS) [µM]	GI50 (OVCAR-3 ovarian) [µM]	GI50 (HOP-62 NSCLC) [µM]	GI50 (RXF 393 renal) [µM]	GI50 (A549 NSCLC) [µM]	GI50 (COLO 205 colon) [µM]	GI50 (SNB-19 CNS) [µM]	GI50 (OVCAR-4 ovarian) [µM]	GI50 (NCI-H460 lung) [µM]
Cc1cccc(C)c1N1C(=O)C(=O)C(c2nc3ccccc3s2)/C(=N/NC(=O)c2ccccc2O)C1=O (centres undefined)	> 100 µM	> 100	> 100 µM	> 100	17.2	> 100	> 86.9	> 79.8	> 100 µM	> 92										
CCOc1ccc(NCC2CC/C(=C\c3ccccc3OC)C2=O)cc1 (centres undefined)	35.2 µM	32.3	17.1 µM	> 57.8	21.4	35.6	5.59	30	12.8 µM											
O=C(c1ccccc1)c1c(C(F)(F)F)n([O-])c2cc(C(F)(F)F)ccc2[n+]1=O	3.93 µM	2.97	3.11 µM	3.5	2.92	3.48	3.27	3.46	2.89 µM	3.42	2.09	1.57	1.61	1.83	1.34	1.72	1.41	1.89	1.19	1.68
O=C(CI)Nc1ccc(O)c2ccccc12	9.22 µM	11.3	2.23 µM	5.14	1.97	13.7	0.956	11.7	1.23 µM	4.71	2.93	3.38	0.857	2.27	0.742	3.56	0.379	3.39	0.575	2.13
O=C1C(=O)c2ccccc2C(O)=C1CCCc1ccc(C2CCCCC2)cc1		6.36	15.2 µM	23	26.8	> 100	34.8	> 100	> 100 µM	10.3		1.89	0.96	7.2	11.5	3.93	7.02	5.66	3.23	2.78
COC(=O)C(CC(=O)Nc1ccc(Cl)c(Cl)c1)C(=O)C(=O)Nc1ccc(Cl)c(Cl)c1 (centres undefined)	> 100 µM	> 100	> 100 µM	> 100	> 100	> 100	> 100	> 100	> 100 µM	> 100										
CCCCCCCCCCCCCCCCOP(=O)([O-])OCC[N+](C)(C)C	7.05 µM and 46.9 µM	53	14.8 µM and 48.4 µM						12.6 µM and 38.6 µM		2.36		3.74	1.38	0.427	1.6	0.424	1.21	2.88	0.518
O=S(=O)(N=NC=C1c2ccccc2N(O)c2ccccc21)c1ccc(Cl)cc1	> 100 µM	> 100	> 100 µM	> 100		> 100	> 100	> 100	> 100 µM	> 100										
COC(=O)/C(C#N)=C(\N)C(Cl)(Cl)Cl	87.2 µM	19.4	12.9 µM	39	3.77	12.7	4.72	> 100	8.56 µM	16.1										
C=CCC1(C(=O)OC(C)(C)C)C(OC)=C(C(=O)OC(C)(C)C)C2C1C(C(=O)OC(C)(C)C)=C(OC)C2(CC=C)C(=O)OC(C)(C)C (centres undefined)	> 100 µM	> 100	> 100 µM		> 100	> 100	> 100	> 100												
Cc1ccc2nc3cc(C)c(=O)cc-3sc2c1	> 100 µM	> 100	> 100 µM	> 100		> 100	> 100	> 100	> 100 µM	> 100										
CCCN(CCC)C(=O)c1nc(N)nc(-c2ccc(OC)cc2)c1-c1ccc(OC)cc1	> 100 µM	> 100	> 100 µM			> 100	> 100	> 100	> 100 µM	> 100										
Cc1nc(/C=C2\C(=O)C=Cc3ccccc32)c(O)o1	> 100 µM	> 100		> 100	> 100	> 100	> 100	> 100	> 100 µM	> 100										
O=C1CNC(=O)c2[nH]cnc2N1		> 100	> 100 µM		> 100	> 100	> 100	> 100	> 100 µM	> 100										
CC(=O)NNc1nc(C)c(C(=O)/C=C/c2ccc(Cl)cc2)s1	> 100 µM	> 100	> 100 µM	> 100	> 100	> 100	> 100	> 100		> 100										
O=C(Nc1ccc(F)cc1)Nc1ccc(Br)c(C(F)(F)F)c1	6.19 µM	5.62	11.6 µM		8.28	12.8	3.27	15.6	9.75 µM	10.4	2.38	1.39	1.65		2.66	2.34	1.72	3.42	2.13	2.53
C#CC1(O)CCC2[C@@H]3CCc4cc(Oc5nc(F)nc(-c6c7ccccc7c(SCC)n6CCC)n5)ccc4C3CC[C@@]21C (some centres undefined)	> 100 µM	> 100	> 100 µM	> 100	55.4	> 100	> 100		> 100 µM	> 100										
CC(=O)OC12c3ccccc3-c3ccccc3C1C(C(=O)O)C2C(=O)O (centres undefined)	> 10 µM	> 10	> 10 µM	> 10	> 10		> 10	> 10	> 10 µM	> 10										
CCOC(=O)C1=C(C)N(NC(N)=O)C2(N)N(NC(N)=O)C(C)=C(C(=O)OCC)C12C(=O)OCC (centres undefined)	> 100 µM	> 100	> 100 µM	> 100	> 100	> 100		> 100	> 100 µM	> 100										
